Consider 17 compounds from patent publication US6075029A, “Xanthine modulators of metabolism of cellular P-450” (Cell Therapeutics, Inc., priority 1998, dated 2000).

For one data set, the target named is T1, P-4501A2 (Homo sapiens, UniProt P05177).
T1 sequence (P05177 1-516): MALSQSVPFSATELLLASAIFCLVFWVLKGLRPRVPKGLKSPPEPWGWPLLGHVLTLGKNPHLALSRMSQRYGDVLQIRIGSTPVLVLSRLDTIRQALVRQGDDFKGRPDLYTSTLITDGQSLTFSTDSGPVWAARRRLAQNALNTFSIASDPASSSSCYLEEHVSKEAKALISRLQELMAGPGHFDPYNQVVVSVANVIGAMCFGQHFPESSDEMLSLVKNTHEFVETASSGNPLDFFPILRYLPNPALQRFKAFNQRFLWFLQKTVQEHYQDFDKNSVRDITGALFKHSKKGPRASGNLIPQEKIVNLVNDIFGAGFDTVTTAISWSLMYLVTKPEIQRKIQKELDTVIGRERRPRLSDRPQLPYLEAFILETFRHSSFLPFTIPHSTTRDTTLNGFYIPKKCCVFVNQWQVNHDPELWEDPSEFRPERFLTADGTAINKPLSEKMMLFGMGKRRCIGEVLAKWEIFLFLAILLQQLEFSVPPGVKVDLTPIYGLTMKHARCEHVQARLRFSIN
Briefly: Inhibition of P-450 mediated caffeine metabolism to paraxanthine in human liver microsomes. To be noted: for inhibition of P-450-mediated caffeine metabolism (in words): human liver microsomes, summary of Table 1; for activity at 0 h, 100 µM / activity at 5 min, 100 µM / activity at 20 min, 100 µM: human. How it is done: The model system directly measures inhibition of P-4501A2-mediated metabolism in the physiological environment of human liver microsomes. Measurement of drug metabolism in a microsome system is directly predictive of liver metabolism in vivo. Thus, microsome data can be used to estimate the in vivo circulating half-life of compounds that are primarily metabolized in the liver.
Microsomes were prepared by standard techniques from four human livers. […] Three sets of enantiomers, CT2408 R&S, CT2410 R&S, and CT2412 R&S, were evaluated for inhibition of caffeine metabolism to paraxanthine by P-450.
Briefly, the inventive compounds were preincubated in microsomes with NADPH at concentrations of 100 μM for 0, 5, and 20 minutes. Samples containing only buffer, LSF, or furafylline were used as controls.
At the end of the preincubation period, the samples were diluted in a solution of NADPH and caffeine. The samples then were incubated for twenty minutes. Hydroxyethyl theophylline was added as an internal standard, and the samples were analyzed for paraxanthine via HPLC. Decreased paraxanthine formation is indicative of inhibition of P-450-mediated caffeine metabolism.
Incubation conditions and analysis of paraxanthine
To 200 μL microsomal suspension (HL-124; 20 mg/mL protein, P-450 specific activity 0.24 nmol/mg protein) and 100 μL 8.0 mM NADPH (Sigma, tetrasodium salt) in 100 mM phosphate buffer pH 7.4 preincubated for 2 minutes at 37° were added 100 μL of test compound solution (400 μM) in phosphate buffer ([…], pH 7.4). The solution then was incubated at 37° with agitation for 0, 5, and 20 minutes at which times 100 μL of the solution was transferred to another tube containing 200 μL 12.5 mM caffeine and 200 μL 5.0 mM NADPH which had been warmed at 37° for 2 minutes. The suspensions then were incubated for 20 minutes, 200 μL acetonitrile added, and the tubes placed on ice.
After all incubations were finished, 50 μL β-hydroxyethyl theophylline (50 μg/mL, HET) was added as an internal standard. Paraxanthine standards were prepared in 0.5 mL phosphate buffer containing 2.0 mg boiled microsomal protein ranging in concentration from 0.433 to 13.9 nmol/sample.
The suspensions then were extracted for 5 minutes with 7.0 mL methylene chloride (Fisher Optima grade), centrifuged at 3,000 g and the aqueous layer aspirated to waste. An aliquot of the organic (5.5 mL) was then transferred to another tube, evaporated to dryness under nitrogen at 30°, and reconstituted in 20% methanol/water.
Thirty microliters of reconstituted sample were then applied to an Hewlett Packard 1050 HPLC system equipped with a Rainin Microsorb™ 4.6×100 mm column with 3 μm C-18 packing. Mobile phase was maintained at 1.0 mL/min and changed from 2:13:85 to 2:20:78 acetonitrile:methanol:25 mM phosphate buffer, pH 5 over 10 minutes, the column was then washed by increasing the acetonitrile to 20% prior to re-equilibration for the next injection. Column eluent was monitored at 285 nm and paraxanthine, HET, and caffeine respectively eluted at 5.3, 6.6, and 9.8 minutes.
(Liver microsomes are vesicles of endoplasmic reticulum, rich in cytochrome P450 enzymes.)

Another data set has as its system LSF metabolism. The data set can be described thus: Co-administration of furafylline with LSF: circulating half-life of LSF. The class given is in vivo. To be noted: co-administered with LSF.
The next data set has as its system caffeine metabolism. The note with it: cited from earlier work.
The test system of data set [1] is P-450IA2. The note with it: liver; Sesardic et al.; cited from earlier work.
For data set [2], the system named is P-450IA2. To be noted: Lillibridge et al.; cited from earlier work.
The conditions of data set [3]: human, in vivo; cited from earlier work.

For `Cc1nc2c([nH]1)c(=O)n(CCCCC(C)O)c(=O)n2C` (stereo not drawn) [CT2408 R&S, 1-(5-Hydroxyhexyl)-3,8-dimethylxanthine], the “inhibition of P-450-mediated caffeine metabolism (in words)” value on P-4501A2 is recorded as “showed similar inhibition”.
Regarding `Cc1nc2c([nH]1)c(=O)n(CCCC[C@@H](C)O)c(=O)n2C` [CT2408R, (R)-1-(5-Hydroxyhexyl)-3,8-dimethylxanthine], on P-4501A2 (liver microsomes), the activity at 0 h, 100 µM stood at 95.2%; the activity at 5 min, 100 µM is 73.9%; the activity at 20 min, 100 µM turned out to be 46.6%.
The corresponding values for `Cc1nc2c([nH]1)c(=O)n(CCCC[C@H](C)O)c(=O)n2C` [CT2408S, (S)-1-(5-Hydroxyhexyl)-3,8-dimethylxanthine] are 97.2%, 71% and 41.8%.
For `Cc1nc2c(c(=O)n(CCCCC(C)O)c(=O)n2C)n1C` (stereo not drawn) [CT2410, 1-(5-Hydroxyhexyl)-3,7,8-trimethylxanthine], the “inhibition of P-450-mediated caffeine metabolism (in words)” value against P-4501A2 is on record as “Neither CT2410 (1-(5-Hydroxyhexyl)-3,7,8-trimethylxanthine) nor LSF ((R)-1-(5-Hydroxyhexyl)-3,7-dimethylxanthine) had any inhibitory effect”.
As for `Cc1nc2c(c(=O)n(CCCC[C@@H](C)O)c(=O)n2C)n1C` [CT2410R, 1-(5-Hydroxyhexyl)-3,7,8-trimethylxanthine], at P-4501A2 (liver microsomes), the activity at 0 h, 100 µM turned out to be 92.8%; the activity at 5 min, 100 µM came out at 87.8%; the activity at 20 min, 100 µM amounted to 88.3%.
On the same counts, the results for `Cc1nc2c(c(=O)n(CCCC[C@H](C)O)c(=O)n2C)n1C` [CT2410S, 1-(5-Hydroxyhexyl)-3,7,8-trimethylxanthine] are 101%, 91% and 83.5%.
Regarding `Cc1nc2c([nH]1)c(=O)n(CCCCC(C)O)c(=O)n2Cc1ccco1` (stereo not drawn) [CT2412 R&S, 3-(2-furylmethyl)-1-(5-hydroxyhexyl)-8-methylxanthine], the “inhibition of P-450-mediated caffeine metabolism (in words)” value on P-4501A2 is “showed similar inhibition”.
For the compound `Cc1nc2c([nH]1)c(=O)n(CCCC[C@@H](C)O)c(=O)n2Cc1ccco1` [CT2412R, (R)-3-(2-Furylmethyl)-1-(5-hydroxyhexyl)-8-methylxanthine], at P-4501A2 (liver microsomes), the activity at 0 h, 100 µM amounted to 101%; the activity at 5 min, 100 µM stood at 82.8%; the activity at 20 min, 100 µM turned out to be 56.3%.
`Cc1nc2c([nH]1)c(=O)n(CCCC[C@H](C)O)c(=O)n2Cc1ccco1` [CT2412S, (S)-3-(2-Furylmethyl)-1-(5-hydroxyhexyl)-8-methylxanthine]: on P-4501A2 (liver microsomes), the activity at 0 h, 100 µM amounted to 98.7%; the activity at 5 min, 100 µM was 75.6%; the activity at 20 min, 100 µM came out at 51.7%.
Turning to `Cc1nc2c([nH]1)c(=O)n(C)c(=O)n2Cc1ccco1` [FRF, 1,8-dimethyl-3-(2'furfuryl)-methylxanthine], on P-4501A2 (microsomes), the activity at 0 h, 100 µM amounted to 36.8%; the activity at 5 min, 100 µM stood at 13.9%; the activity at 20 min, 100 µM worked out at 10.1%. The “circulating half-life of LSF on co-administration” value in the data set with LSF metabolism is reported as “increase the circulating half-life of the methylxanthine compound LSF”. The “circulating half-life of caffeine” value in the data set on caffeine metabolism (by inhibiting N3 demethylation) is recorded as “increases the circulating half-life of caffeine”. In addition, in the data set with caffeine metabolism (clinical trials, Tarrus et al.), the “serum caffeine levels in patients treated” value is “elevated serum caffeine levels”. Besides, the “inhibition of P-450IA2 / N3 demethylation of caffeine” value with P-450IA2 [1] is on record as “inhibiting the P-450 isozyme, P-450IA2, which catalyzes N3 demethylation of caffeine in the liver”.
`C[C@@H](O)CCCCn1c(=O)c2c(ncn2C)n(C)c1=O` [LSF, (R)-1-(5-Hydroxyhexyl)-3,7-dimethylxanthine, reference compound]: the “inhibition of P-450-mediated caffeine metabolism (in words)” value on P-4501A2 is on record as “Neither CT2410 (1-(5-Hydroxyhexyl)-3,7,8-trimethylxanthine) nor LSF ((R)-1-(5-Hydroxyhexyl)-3,7-dimethylxanthine) had any inhibitory effect”. At P-4501A2 (liver microsomes), the activity at 0 h, 100 µM was found to be 101%; the activity at 5 min, 100 µM came out at 91%; the activity at 20 min, 100 µM turned out to be 85.8%. Besides, in the data set on P-450IA2 [2], the site of metabolism result is “primary metabolites of LSF and PTX result from modification of the N1 substituent, not the N3 substituent”.
As to `CC(=O)CCCCn1c(=O)c2c(ncn2C)n(C)c1=O` [PTX], in the data set with P-450IA2 [2], the site of metabolism entry is “primary metabolites of LSF and PTX result from modification of the N1 substituent, not the N3 substituent”.
As to `CC(C(=O)O)c1ccc2oc(-c3ccc(Cl)cc3)nc2c1` (stereo not drawn) [benoxaprofen], the “toxic / side effects” value in data set [3] is recorded as “lethal side effects”.
Turning to `Cn1c(=O)c2c(ncn2C)n(C)c1=O` [caffeine, 1,3,7-trimethylxanthine], in the data set with P-450IA2 [2], the site of metabolism entry is given as “P-450IA2 mediates demethylation of caffeine at the N3 position of the xanthine ring”.
With `CC[C@H](CO)NCCN[C@H](CC)CO` [ethambutol R,R-enantiomer], the “toxic / side effects” value in data set [3] was “can cause blindness”.
Turning to `O=C1CC[C@@H](N2C(=O)c3ccccc3C2=O)C(=O)N1` [thalidomide R-isomer], in data set [3], the sedative activity entry was “desired sedative activity resided in the R-isomer”.
As to `O=C1CC[C@H](N2C(=O)c3ccccc3C2=O)C(=O)N1` [thalidomide S-isomer], the “toxic / side effects” value in data set [3] is recorded as “teratogen, causing the birth defects in babies born to mothers using this drug”.
